Laboratory results reported in ChEMBL document CHEMBL2401728, “An unexpected Dimroth rearrangement leading to annelated thieno[3,2-d][1,2,3]triazolo[1,5-a]pyrimidines with potent antitumor activity” (Eur J Med Chem, 2013).

Assays:
Type in all cases: functional
[1] = tested on: MCF7; assay: Cytotoxicity against human MCF7 cells assessed as cellular growth at 10 uM after 48 hrs by SRB assay relative to control
[2] = tested on: UACC-62; assay: Cytotoxicity against human UACC62 cells assessed as cellular growth at 10 uM after 48 hrs by SRB assay relative to control
[3] = tested on: SR; assay: Cytotoxicity against human SR cells assessed as cellular growth at 10 uM after 48 hrs by SRB assay relative to control
[4] = tested on: SK-MEL-5; assay: Cytotoxicity against human SK-MEL-5 cells assessed as cellular growth at 10 uM after 48 hrs by SRB assay relative to control
[5] = tested on: NCI-H460; assay: Cytotoxicity against human NCI-H460 cells assessed as cellular growth at 10 uM after 48 hrs by SRB assay relative to control
[6] = tested on: BT-549; assay: Cytotoxicity against human BT549 cells assessed as cellular growth at 10 uM after 48 hrs by SRB assay relative to control
[7] = tested on: SK-MEL-2; assay: Cytotoxicity against human SK-MEL-2 cells assessed as cellular growth at 10 uM after 48 hrs by SRB assay relative to control
[8] = tested on: U-251; assay: Cytotoxicity against human U251 cells assessed as cellular growth at 10 uM after 48 hrs by SRB assay relative to control
[9] = tested on: SF-268; assay: Cytotoxicity against human SF268 cells assessed as cellular growth at 10 uM after 48 hrs by SRB assay relative to control
[10] = tested on: COLO 205; assay: Cytotoxicity against human COLO205 cells assessed as cellular growth at 10 uM after 48 hrs by SRB assay relative to control
[11] = tested on: HOP-92; assay: Cytotoxicity against human HOP92 cells assessed as cellular growth at 10 uM after 48 hrs by SRB assay relative to control
[12] = tested on: PC-3; assay: Cytotoxicity against human PC3 cells assessed as cellular growth at 10 uM after 48 hrs by SRB assay relative to control
[13] = tested on: SF-295; assay: Cytotoxicity against human SF295 cells assessed as cellular growth at 10 uM after 48 hrs by SRB assay relative to control
[14] = tested on: MDA-MB-231; assay: Cytotoxicity against human MDA-MB-231 cells assessed as cellular growth at 10 uM after 48 hrs by SRB assay relative to control
[15] = tested on: ACHN; assay: Cytotoxicity against human ACHN cells assessed as cellular growth at 10 uM after 48 hrs by SRB assay relative to control
[16] = tested on: NCI-H23; assay: Cytotoxicity against human NCI-H23 cells assessed as cellular growth at 10 uM after 48 hrs by SRB assay relative to control
[17] = tested on: A549; assay: Cytotoxicity against human A549 cells assessed as cellular growth at 10 uM after 48 hrs by SRB assay relative to control
[18] = tested on: MDA-MB-468; assay: Cytotoxicity against human MDA-MB-468 cells assessed as cellular growth at 10 uM after 48 hrs by SRB assay relative to control
[19] = tested on: LOX IMVI; assay: Cytotoxicity against human LOXIMVI cells assessed as cellular growth at 10 uM after 48 hrs by SRB assay relative to control
[20] = tested on: SF-539; assay: Cytotoxicity against human SF539 cells assessed as cellular growth at 10 uM after 48 hrs by SRB assay relative to control
[21] = tested on: UO-31; assay: Cytotoxicity against human UO31 cells assessed as cellular growth at 10 uM after 48 hrs by SRB assay relative to control
[22] = tested on: OVCAR-4; assay: Cytotoxicity against human OVCAR4 cells assessed as cellular growth at 10 uM after 48 hrs by SRB assay relative to control
[23] = tested on: OVCAR-5; assay: Cytotoxicity against human OVCAR5 cells assessed as cellular growth at 10 uM after 48 hrs by SRB assay relative to control
[24] = tested on: HCT-15; assay: Cytotoxicity against human HCT15 cells assessed as cellular growth at 10 uM after 48 hrs by SRB assay relative to control
[25] = tested on: SN12C; assay: Cytotoxicity against human SN12C cells assessed as cellular growth at 10 uM after 48 hrs by SRB assay relative to control
[26] = tested on: K562; assay: Cytotoxicity against human K562 cells assessed as cellular growth at 10 uM after 48 hrs by SRB assay relative to control
[27] = tested on: Malme-3M; assay: Cytotoxicity against human MALME-3M cells assessed as cellular growth at 10 uM after 48 hrs by SRB assay relative to control
[28] = tested on: RPMI-8226; assay: Cytotoxicity against human RPMI8226 cells assessed as cellular growth at 10 uM after 48 hrs by SRB assay relative to control
[29] = tested on: MDA-MB-435; assay: Cytotoxicity against human MDA-MB-435 cells assessed as cellular growth at 10 uM after 48 hrs by SRB assay relative to control
[30] = tested on: SNB-19; assay: Cytotoxicity against human SNB19 cells assessed as cellular growth at 10 uM after 48 hrs by SRB assay relative to control
[31] = tested on: NCI-H322M; assay: Cytotoxicity against human NCI-H322M cells assessed as cellular growth at 10 uM after 48 hrs by SRB assay relative to control
[32] = tested on: UACC-257; assay: Cytotoxicity against human UACC257 cells assessed as cellular growth at 10 uM after 48 hrs by SRB assay relative to control
[33] = tested on: SNB-75; assay: Cytotoxicity against human SNB75 cells assessed as cellular growth at 10 uM after 48 hrs by SRB assay relative to control
[34] = tested on: OVCAR-3; assay: Cytotoxicity against human OVCAR3 cells assessed as cellular growth at 10 uM after 48 hrs by SRB assay relative to control
[35] = tested on: TK-10; assay: Cytotoxicity against human TK10 cells assessed as cellular growth at 10 uM after 48 hrs by SRB assay relative to control
[36] = Cytotoxicity against human NCI-ADR-RES cells assessed as cellular growth at 10 uM after 48 hrs by SRB assay relative to control
[37] = tested on: NCI-H522; assay: Cytotoxicity against human NCI-H522 cells assessed as cellular growth at 10 uM after 48 hrs by SRB assay relative to control
[38] = tested on: RXF 393; assay: Cytotoxicity against human RXF393 cells assessed as cellular growth at 10 uM after 48 hrs by SRB assay relative to control
[39] = tested on: OVCAR-8; assay: Cytotoxicity against human OVCAR8 cells assessed as cellular growth at 10 uM after 48 hrs by SRB assay relative to control
[40] = tested on: HT-29; assay: Cytotoxicity against human HT-29 cells assessed as cellular growth at 10 uM after 48 hrs by SRB assay relative to control
[41] = tested on: HL-60(TB); assay: Cytotoxicity against human HL-60(TB) cells assessed as cellular growth at 10 uM after 48 hrs by SRB assay relative to control
[42] = tested on: CAKI-1; assay: Cytotoxicity against human Caki1 cells assessed as cellular growth at 10 uM after 48 hrs by SRB assay relative to control
[43] = tested on: CCRF-CEM; assay: Cytotoxicity against human CCRF-CEM cells assessed as cellular growth at 10 uM after 48 hrs by SRB assay relative to control

Which results are given for O=C(O)CCCn1c2c(sc3ccccc32)c(=O)n2nnc(-c3ccccc3)c12?
Activity [1]: 84.04%; Activity [2]: 75.64%; Activity [3]: 117.58%; Activity [4]: 79.01%; Activity [5]: 74.3%; Activity [6]: 54.36%; Activity [7]: 107.41%; Activity [8]: 94.66%; Activity [9]: 91.25%; Activity [10]: 110.27%; Activity [11]: 107.65%; Activity [12]: 89.28%; Activity [13]: 92.89%; Activity [14]: 92.52%; Activity [15]: 79.06%; Activity [16]: 118.45%; Activity [17]: 89.47%; Activity [18]: 85.92%; Activity [19]: 94.14%; Activity [20]: 91.17%; Activity [21]: 69.07%; Activity [22]: 93.19%; Activity [23]: 154.53%; Activity [24]: 66.61%; Activity [25]: 88.81%; Activity [26]: 96.49%; Activity [27]: 106.11%; Activity [28]: 93.76%; Activity [29]: 89.16%; Activity [30]: 76.27%; Activity [31]: 86.21%; Activity [32]: 111.46%; Activity [33]: 83%; Activity [34]: 103.59%; Activity [35]: 98.3%; Activity [36]: 107.52%; Activity [37]: 34.84%; Activity [38]: 51.92%; Activity [39]: 77.77%; Activity [40]: 92.57%; Activity [41]: 113.58%; Activity [42]: 60.48%; Activity [43]: 92.35%

Which results are given for O=C(CCCn1c2c(sc3ccccc32)c(=O)n2nnc(-c3ccccc3)c12)NCCc1c[nH]cn1?
Activity [1]: -100%; Activity [2]: -76%; Activity [3]: -64%; Activity [4]: -67.14%; Activity [5]: -93.2%; Activity [6]: 4%; Activity [7]: -90.32%; Activity [8]: -100%; Activity [9]: -77%; Activity [10]: -77%; Activity [11]: -75.7%; Activity [12]: -84.51%; Activity [13]: -83%; Activity [14]: -64%; Activity [15]: -84%; Activity [16]: -54%; Activity [17]: -75.35%; Activity [18]: -93%; Activity [19]: -96%; Activity [20]: -97.26%; Activity [21]: -97%; Activity [22]: -92.51%; Activity [23]: -91%; Activity [24]: -75%; Activity [25]: -80%; Activity [26]: -70%; Activity [27]: -76.11%; Activity [28]: -4.25%; Activity [29]: -95.09%; Activity [30]: 27.29%; Activity [31]: -34.11%; Activity [32]: -69%; Activity [33]: -89%; Activity [34]: -96%; Activity [35]: -91%; Activity [36]: 8%; Activity [37]: -95.79%; Activity [38]: -70%; Activity [39]: -50.58%; Activity [40]: -100%; Activity [41]: -29%; Activity [42]: -83.98%; Activity [43]: -58%

Which results are given for CN1CCN(CCCn2c3c(sc4ncccc43)c(=O)n3nnc(-c4ccccc4)c23)CC1?
Activity [1]: -91%; Activity [2]: 85%; Activity [3]: -50%; Activity [4]: -98%; Activity [5]: -70.68%; Activity [6]: 76%; Activity [7]: 99.31%; Activity [8]: -84%; Activity [9]: -77%; Activity [10]: -82%; Activity [11]: 42%; Activity [12]: -3.82%; Activity [13]: -79%; Activity [14]: -83.53%; Activity [15]: -77%; Activity [16]: -39%; Activity [17]: -74.7%; Activity [18]: -94%; Activity [19]: -96.04%; Activity [20]: -95.99%; Activity [21]: -90.79%; Activity [22]: -65%; Activity [23]: -15%; Activity [24]: -63%; Activity [25]: -55%; Activity [26]: -41%; Activity [27]: -82%; Activity [28]: -48%; Activity [29]: -81%; Activity [30]: -63%; Activity [31]: -76%; Activity [32]: -87%; Activity [33]: 48%; Activity [34]: -83.15%; Activity [35]: -88%; Activity [36]: -29%; Activity [37]: -76%; Activity [38]: -93%; Activity [39]: -48.18%; Activity [40]: -46.19%; Activity [41]: -56%; Activity [42]: -79%; Activity [43]: -45%
